Results on ten compounds are retold here after PubChem BioAssay (NCI).

Some test systems named below: RXF 393 renal; KM12 colon; T-47D breast; HCT-15 colon; MCF7 breast; MDA-MB-231 breast; HOP-62 NSCLC; SNB-19 CNS; PC-3 prostate; MALME-3M melanoma.
What all share (experiment): NCI-60 cell line screen, 48 h

Values joined by “and” are separate entries in the source; they are usually repeats but may differ in a detail not shown here. Equal values may be shown once.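 Values below derive from 48-hour exposures of cells grown in 96-well plates, with endpoints linearly interpolated between the two concentrations bracketing the appropriate inhibition level. The concentration for 50% growth inhibition is given as GI50. TGI denotes the concentration required for complete inhibition of growth.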

In the case of `COc1cc2c3c(c4cc(OC)c(OC)cc4c2cc1OC)CN1CCC[C@H]1C3`, the GI50 in the assay on RXF 393 renal is 0.00487 µM; with KM12 colon, 0.0452 µM and < 0.01 µM; in the assay with T-47D breast, 0.0192 µM; in the assay on HCT-15 colon, 0.0463 µM and 0.0111 µM; in the assay on HOP-62 NSCLC, 0.0409 µM and < 0.0147 µM. Further, the TGI with RXF 393 renal was 0.0931 µM; in the assay on KM12 colon, 1.22 µM; in the assay on T-47D breast, 0.33 µM; with MCF7 breast it was 0.127 µM and 0.318 µM; in the assay with MDA-MB-231 breast it was 0.174 µM; with HOP-62 NSCLC, 2.85 µM. In the assay on SNB-19 CNS, this compound returned a TGI of 0.184 µM.

For `CCOC(=O)Nc1cc2c(c(N)n1)N=C(c1ccc(Cl)cc1Cl)CN2`, the TGI in the assay with KM12 colon was 2.83 µM; in the assay on T-47D breast, 43.1 µM; in the assay with HCT-15 colon, 9.02 µM; with PC-3 prostate, 14.9 µM; in the assay on MCF7 breast, 21.7 µM; in the assay with MDA-MB-231 breast, 16.2 µM. Also, the TGI with MALME-3M melanoma was determined as 29.6 µM; in the assay on HOP-62 NSCLC, 19.8 µM; in the assay with SNB-19 CNS it was 23.2 µM.

On to `C=C1C(C)C2C(Cc3ccccc3)NC(=O)C23C(OC(C)=O)C=CC(C)(O)C(=O)C(C)C/C=C/C3C1O` (stereo not drawn), for which the GI50 was 0.0604 µM with RXF 393 renal; 163 µM in the assay with KM12 colon; 5.14 µM in the assay on T-47D breast; above 500 µM with HCT-15 colon; 8.87 µM in the assay with MCF7 breast; 0.193 µM in the assay with MDA-MB-231 breast. The GI50 in the assay on MALME-3M melanoma was 61.7 µM; in the assay on HOP-62 NSCLC it was 0.0431 µM and 0.106 µM; with SNB-19 CNS, 0.474 µM. For the same compound, the TGI in the assay on RXF 393 renal is 1.55 µM and 1.04 µM; in the assay with KM12 colon, above 500 µM; in the assay with T-47D breast, above 357 µM; in the assay on HCT-15 colon, above 500 µM; with MCF7 breast, 87 µM and 275 µM; with MDA-MB-231 breast, above 220 µM. In addition, in the assay on MALME-3M melanoma, the TGI is > 96.7 µM and 489 µM.

Consider `COc1ccccc1NC(=O)c1sc2ncn(CCOc3ccccc3)c(=O)c2c1C`, for which the GI50 with KM12 colon is 1.43 µM; in the assay on T-47D breast, above 50 µM; in the assay with HCT-15 colon, 0.431 µM; with PC-3 prostate it was above 50 µM; in the assay on MCF7 breast, 3.55 µM; in the assay with MDA-MB-231 breast, 2.61 µM. Also, the figures for the GI50 in the assay on HOP-62 NSCLC and with SNB-19 CNS were 15.6 µM and above 50 µM, respectively. In addition, the TGI in the assay on KM12 colon was above 50 µM; in the assay on T-47D breast, above 50 µM; in the assay with HCT-15 colon, 15.1 µM; in the assay on PC-3 prostate, above 50 µM; in the assay on MCF7 breast it was above 50 µM; with MDA-MB-231 breast, above 50 µM. Further, the TGI in the assay with HOP-62 NSCLC and in the assay on SNB-19 CNS was above 50 µM in each case.

Turning to `Cc1[nH]c2c(C)c3c([nH]c4ccc(Cl)cc43)c(C)c2c(=O)c1C`, the TGI in the assay with KM12 colon turned out to be 77.2 µM; in the assay with T-47D breast, 16.8 µM; in the assay on HCT-15 colon, 5.72 µM; in the assay on PC-3 prostate, 22.4 µM; with MCF7 breast, 6.9 µM; in the assay with MDA-MB-231 breast it was 7.54 µM. In addition, the TGI was 72.8 µM in the assay on MALME-3M melanoma, 19.8 µM in the assay on HOP-62 NSCLC and above 100 µM in the assay with SNB-19 CNS.

As for `COc1cc([C@H]2OC[C@@H]3C(c4cc(OC)c5c(c4)OCO5)OC[C@H]23)cc(OC)c1OC` (stereo partly drawn), the TGI in the assay with KM12 colon, in the assay on T-47D breast, in the assay on HCT-15 colon, in the assay on PC-3 prostate, in the assay on MCF7 breast and in the assay with MDA-MB-231 breast was above 100 µM each time. The TGI in the assay on HOP-62 NSCLC and with SNB-19 CNS was above 100 µM in each case.

For `CC(C)(C)n1cc(-c2ccnc(NCCCNS(=O)(=O)c3cccc4ccccc34)c2)c(-c2cccc(O)c2)n1`, the GI50 was 1.52 µM in the assay on RXF 393 renal; 2.34 µM in the assay on KM12 colon; 2.22 µM with T-47D breast; 1.53 µM in the assay with HCT-15 colon; 1.85 µM with PC-3 prostate; 1.91 µM in the assay on MCF7 breast. Moreover, the results for the GI50 in the assay with MDA-MB-231 breast, in the assay with MALME-3M melanoma and with SNB-19 CNS were 2.32 µM, 1.51 µM and 2.63 µM, respectively. For the same compound, the TGI with RXF 393 renal was 3.06 µM; in the assay with KM12 colon it was 5.42 µM; in the assay with T-47D breast, 6.18 µM; in the assay with HCT-15 colon, 3.64 µM; with PC-3 prostate, 5.57 µM; with MCF7 breast it was 4.06 µM. The TGI is 5.64 µM in the assay with MDA-MB-231 breast, 3.18 µM in the assay on MALME-3M melanoma and 7.21 µM in the assay with SNB-19 CNS.

In the case of `CC/C(=C/c1ccc(OC)cc1)[N+](=O)[O-]`, the GI50 in the assay with RXF 393 renal was 1.85 µM; in the assay on KM12 colon it was 2.24 µM; with T-47D breast it was 1.82 µM; in the assay with HCT-15 colon, 1.48 µM; with PC-3 prostate, 1.98 µM; in the assay with MDA-MB-231 breast it was 2.31 µM. The GI50 in the assay on MALME-3M melanoma was 1.78 µM; in the assay on HOP-62 NSCLC it was 2.23 µM; in the assay with SNB-19 CNS, 2.77 µM. The TGI with RXF 393 renal was 3.39 µM; with KM12 colon, 5.47 µM; in the assay on T-47D breast it was 5.95 µM; in the assay on HCT-15 colon, 3.08 µM; in the assay on PC-3 prostate, 3.87 µM; in the assay on MDA-MB-231 breast, 4.9 µM. Also, the values for the TGI in the assay with MALME-3M melanoma, with HOP-62 NSCLC and in the assay on SNB-19 CNS were 3.77 µM, 5.89 µM and 7.93 µM, respectively.

Turning to `O=C(CC1(O)C(=O)Nc2ccc(Cl)cc21)c1ccc(C(=O)NCC2CCC3(CC2)OOC2(CCCCC2)OO3)cc1` (stereo not drawn), the GI50 is 2.8 µM in the assay with RXF 393 renal; 1.77 µM with KM12 colon; 1.57 µM in the assay on T-47D breast; 3.06 µM in the assay on HCT-15 colon; 1.88 µM with PC-3 prostate; 2.37 µM with MCF7 breast. Moreover, the values for the GI50 with MDA-MB-231 breast, with HOP-62 NSCLC and in the assay on SNB-19 CNS were 2.68 µM, 0.445 µM and 4.19 µM, respectively. For the same compound, the TGI was 9.16 µM with RXF 393 renal; 5.22 µM in the assay with KM12 colon; 5.37 µM in the assay with T-47D breast; 17.2 µM with HCT-15 colon; 5.83 µM in the assay with PC-3 prostate; 9.88 µM with MCF7 breast. The results for the TGI in the assay on MDA-MB-231 breast, with HOP-62 NSCLC and in the assay on SNB-19 CNS were 7.72 µM, 2 µM and 23.6 µM, respectively.

Consider `NP1(Oc2ccc(F)cc2)=NP(N)(Oc2ccc(F)cc2)=NP(Oc2ccc(F)cc2)(Oc2ccc(F)cc2)=N1` (stereo not drawn), for which the TGI was determined as 16.2 µM in the assay with KM12 colon; 7.27 µM in the assay on T-47D breast; 14.6 µM with HCT-15 colon; 16.4 µM in the assay on PC-3 prostate; 10.9 µM in the assay on MCF7 breast; 23.4 µM in the assay with MDA-MB-231 breast. Besides, the TGI in the assay with MALME-3M melanoma was 18.7 µM; in the assay on HOP-62 NSCLC, 21.5 µM; in the assay on SNB-19 CNS, 22.8 µM.
